Results from patent US5338736A, “Angiotensin II receptor blocking 2,3,6-substituted quinazolinones” (American Cyanamid Company, priority 1993, dated 1994).
Several values for one entry are separate records, joined by “and”; a condition that tells them apart may be missing. Equal values may be shown once. Blank lines part the entries; values can stand above or below the compound they belong to.

Tests used:
Angiotensin II Receptor = target: T1, Angiotensin II Receptor (Bos taurus, UniProt P25104); test: Receptor Binding Assay: competition with [^125 I](Sar^1, Ile^8)AngII on adrenal cortex microsomal membranes; set-up: species or system beef; settings: for IC50: beef adrenal cortex membranes, [^125 I](Sar^1, Ile^8)AngII, 60 min, room temperature, pH 7.4
T1 construct: The brownish tissue forming the adrenal cortex is scraped off and finely minced with scissors before homogenization; tissue Maxwell-Cohen (local slaughter house); host or cells: beef adrenal cortex, microsomal membranes
T1 sequence (P25104 1-359): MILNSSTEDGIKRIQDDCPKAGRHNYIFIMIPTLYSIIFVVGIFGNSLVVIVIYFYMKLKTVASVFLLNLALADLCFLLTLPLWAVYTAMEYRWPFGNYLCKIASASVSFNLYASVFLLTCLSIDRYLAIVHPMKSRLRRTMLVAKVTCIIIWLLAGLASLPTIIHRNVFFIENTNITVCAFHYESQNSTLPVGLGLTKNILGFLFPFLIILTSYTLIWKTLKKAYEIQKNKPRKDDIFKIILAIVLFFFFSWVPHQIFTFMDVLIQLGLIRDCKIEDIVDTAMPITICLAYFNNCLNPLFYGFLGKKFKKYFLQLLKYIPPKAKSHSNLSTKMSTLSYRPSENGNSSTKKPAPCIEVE
From the text: Beef adrenals are obtained from a local slaughter house (Maxwell-Cohen). […] All unlabeled AngII analogs, Dimethylsulfoxide (DMSO), nucleotides, bovine serum albumin (BSA) are purchased from Sigma Chemical Co., St. Louis, Mo. U.S.A.
Approximately sixteen (16) to twenty (20) beef adrenal glands are processed as follows: fresh adrenal glands received on crushed ice are cleaned of fatty tissues and the tough membranes encapsulating the glands are removed and discarded. The brownish tissue forming the adrenal cortex is scraped off and finely minced with scissors before homogenization. Care is taken to avoid contamination with medullary tissue during dissection. The scraped cortices are suspended in twenty volumes of an ice-cold buffer medium consisting of 10 mM Tris.HCl (pH 7.4 at 22° C.) and containing 1.0 mM EDTA and 0.2M sucrose. Unless otherwise indicated, all subsequent operations are done at 4° C. […] The homogenate is centrifuged first at low speed (3,000× g) for 10 min. The resulting pellet is discarded and the supernatant fluid recentrifuged at 10,000× g for 15 minutes to give a P2 pellet. […] The translucent final pellet is harvested and combined in a small volume (20-50.0 ml) of 50.0 mM Tris.HCl buffer, pH 7.2. […] The pelleted membrane is reconstituted in 50.0 mM Tris.HCl buffer containing 0.1 mM of phenylmethylsulfonyl fluoride (PMSF) to give approximately a protein concentration of 2.5 mg per ml of tissue suspension. The membrane preparation is finally aliquoted in 1.0 ml volumes and stored at -70° C. until use in the binding assays.
Assays are performed in triplicate. The wells are left undisturbed for 60 min. at room temperature. […] The filter discs are washed with 10×1.0 ml of cold 0.9% NaCl to remove unbound ligand. […] This method is routinely used. The filters are removed from the filter grid and counted in a Parkard® Cobra Gamma Counter for 1 min. (Packard Instrument Co., Downers Grove, Ill., U.S.A.).

[1] = test system: angiotensin II vasopressor response; test: AII challenge: inhibition of angiotensin II vasopressor response in conscious SHR; format: in vivo, rat (Male Okamoto-Aoki SHR); settings: 3 mg/kg iv; for % Inhibition / Average Change: n = 2
From the text: By administering a compound of this invention to a rat, and then challenging with angiotensin II, a blockage of the vasopressor response is realized.
Conscious Male Okamoto-Aoki SHR, 16-20 weeks old, weighing approximately 330 g are purchased from Charles River Labs (Wilmington, Mass.). Conscious rats are restrained in a supine position with elastic tape. The area at the base of the tail is locally anesthetized by subcutaneous infiltration with 2% procaine. The ventral caudal artery and vein are isolated, and a cannula made of polyethylene (PE) 10-20 tubing (fused together by heat) is passed into the lower abdominal aorta and vena cava, respectively. The cannula is secured, heparinized (1,000 I.U./ml), sealed and the wound is closed. The animals are placed in plastic restraining cages in an upright position. The cannula is attached to a Statham P23Db pressure transducer, and pulsatile blood pressure is recorded to 10-15 minutes with a Gould Brush recorder. (Chan et al., (Drug Development Res., 18:75-94, 1989).
Angiotensin II (human sequence, Sigma Chem. Co., St. Louis, Mo.) of 0.05 and 0.1 μg/kg i.v. is injected into all rats (predosing response). Then a test compound, vehicle or a known angiotensin II antagonist is administered i.v., i.p. or orally to each set of rats. The two doses of angiotensin II are given to each rat again at 30. 60. 90. 120. 180. 240 and 300 minutes post dosing the compound or vehicle. The vasopressor response of angiotensin II is measured for the increase in systolic blood pressure in mmHg. The percentage of antagonism or blockade of the vasopressor response of angiotensin II by a compound is calculated using the vasopressor response (increase in systolic blood pressure) of angiotensin II of each rat predosing the compound as 100%. A compound is considered active if at 30 mg/kg i.v. it antagonized at least 50% of the response.

[2] = AII 0.05 mcg/kg, 30 min post dose
[3] = AII 0.05 mcg/kg, 60 min post dose
[4] = AII 0.05 mcg/kg, 90 min post dose
[5] = AII 0.05 mcg/kg, 120 min post dose
[6] = AII 0.05 mcg/kg, 180 min post dose
[7] = AII 0.05 mcg/kg, 240 min post dose
[8] = AII 0.05 mcg/kg, 300 min post dose
[9] = AII 0.1 mcg/kg, 30 min post dose
[10] = AII 0.1 mcg/kg, 60 min post dose
[11] = AII 0.1 mcg/kg, 90 min post dose
[12] = AII 0.1 mcg/kg, 120 min post dose
[13] = AII 0.1 mcg/kg, 180 min post dose
[14] = AII 0.1 mcg/kg, 240 min post dose
[15] = AII 0.1 mcg/kg, 300 min post dose

IC50 (Angiotensin II Receptor): 105 nM
Compound: CCCCc1nc2ccc(C3CCC4CCCC4O3)cc2c(=O)n1Cc1ccc(-c2ccccc2-c2nn[nH]n2)cc1 (stereo not shown) [Example 10]

IC50 (Angiotensin II Receptor): 132 nM
Compound: CCCCc1nc2ccc(C3CCC4CCCCC4O3)cc2c(=O)n1Cc1ccc(-c2ccccc2-c2nn[nH]n2)cc1 (stereo not shown) [Example 11]
Change (response to AII, individual rat) [1, 2]: 15 mmHg and 20 mmHg
% Inhibition [1, 2]: 59%
Average Change [1, 2]: 17.5 mmHg
Change (response to AII, individual rat) [1, 3]: 30 mmHg and 15 mmHg
% Inhibition [1, 3]: 47%
Average Change [1, 3]: 22.5 mmHg
Change (response to AII, individual rat) [1, 4]: 30 mmHg and 10 mmHg
% Inhibition [1, 4]: 53%
Average Change [1, 4]: 20 mmHg
Change (response to AII, individual rat) [1, 5]: 10 mmHg
% Inhibition [1, 5]: 76%
Average Change [1, 5]: 10 mmHg
Change (response to AII, individual rat) [1, 6]: 30 mmHg and 35 mmHg
% Inhibition [1, 6]: 24%
Average Change [1, 6]: 32.5 mmHg
Change (response to AII, individual rat) [1, 7]: 20 mmHg and 7 mmHg
% Inhibition [1, 7]: 68%
Average Change [1, 7]: 13.5 mmHg
Change (response to AII, individual rat) [1, 8]: 30 mmHg and 15 mmHg
% Inhibition [1, 8]: 47%
Average Change [1, 8]: 22.5 mmHg
Change (response to AII, individual rat) [1, 9]: 10 mmHg and 30 mmHg
% Inhibition [1, 9]: 65%
Average Change [1, 9]: 20 mmHg
Change (response to AII, individual rat) [1, 10]: 20 mmHg and 10 mmHg
% Inhibition [1, 10]: 74%
Average Change [1, 10]: 15 mmHg
Change (response to AII, individual rat) [1, 11]: 30 mmHg and 25 mmHg
% Inhibition [1, 11]: 52%
Average Change [1, 11]: 27.5 mmHg
Change (response to AII, individual rat) [1, 12]: 15 mmHg and 25 mmHg
% Inhibition [1, 12]: 65%
Average Change [1, 12]: 20 mmHg
Change (response to AII, individual rat) [1, 13]: 35 mmHg and 20 mmHg
% Inhibition [1, 13]: 52%
Average Change [1, 13]: 27.5 mmHg
Change (response to AII, individual rat) [1, 14]: 35 mmHg and 30 mmHg
% Inhibition [1, 14]: 43%
Average Change [1, 14]: 32.5 mmHg
Change (response to AII, individual rat) [1, 15]: 35 mmHg and 30 mmHg
% Inhibition [1, 15]: 43%
Average Change [1, 15]: 32.5 mmHg
Response After AII (individual rat) ([1]; after AII 0.05 mcg/kg, 30 min post dose): 260 mmHg and 265 mmHg
Response After AII (individual rat) ([1]; after AII 0.05 mcg/kg, 60 min post dose): 260 mmHg and 255 mmHg
Response After AII (individual rat) ([1]; after AII 0.05 mcg/kg, 90 min post dose): 265 mmHg and 245 mmHg
Response After AII (individual rat) ([1]; after AII 0.05 mcg/kg, 120 min post dose): 255 mmHg and 240 mmHg
Response After AII (individual rat) ([1]; after AII 0.05 mcg/kg, 180 min post dose): 265 mmHg and 260 mmHg
Response After AII (individual rat) ([1]; after AII 0.05 mcg/kg, 240 min post dose): 250 mmHg and 240 mmHg
Response After AII (individual rat) ([1]; after AII 0.05 mcg/kg, 300 min post dose): 275 mmHg and 255 mmHg
Response After AII (individual rat) ([1]; after AII 0.1 mcg/kg, 30 min post dose): 260 mmHg and 280 mmHg
Response After AII (individual rat) ([1]; after AII 0.1 mcg/kg, 60 min post dose): 260 mmHg and 255 mmHg
Response After AII (individual rat) ([1]; after AII 0.1 mcg/kg, 90 min post dose): 285 mmHg and 260 mmHg
Response After AII (individual rat) ([1]; after AII 0.1 mcg/kg, 120 min post dose): 255 mmHg and 250 mmHg
Response After AII (individual rat) ([1]; after AII 0.1 mcg/kg, 180 min post dose): 270 mmHg and 255 mmHg
Response After AII (individual rat) ([1]; after AII 0.1 mcg/kg, 240 min post dose): 285 mmHg and 255 mmHg
Response After AII (individual rat) ([1]; after AII 0.1 mcg/kg, 300 min post dose): 275 mmHg
Control Before AII (individual rat) ([1]; before AII 0.05 mcg/kg, 30 min post dose): 245 mmHg
Control Before AII (individual rat) ([1]; before AII 0.05 mcg/kg, 60 min post dose): 230 mmHg and 240 mmHg
Control Before AII (individual rat) ([1]; before AII 0.05 mcg/kg, 90 min post dose): 235 mmHg
Control Before AII (individual rat) ([1]; before AII 0.05 mcg/kg, 120 min post dose): 245 mmHg and 230 mmHg
Control Before AII (individual rat) ([1]; before AII 0.05 mcg/kg, 180 min post dose): 235 mmHg and 225 mmHg
Control Before AII (individual rat) ([1]; before AII 0.05 mcg/kg, 240 min post dose): 230 mmHg and 233 mmHg
Control Before AII (individual rat) ([1]; before AII 0.05 mcg/kg, 300 min post dose): 245 mmHg and 240 mmHg
Control Before AII (individual rat) ([1]; before AII 0.1 mcg/kg, 30 min post dose): 250 mmHg
Control Before AII (individual rat) ([1]; before AII 0.1 mcg/kg, 60 min post dose): 240 mmHg and 245 mmHg
Control Before AII (individual rat) ([1]; before AII 0.1 mcg/kg, 90 min post dose): 255 mmHg and 235 mmHg
Control Before AII (individual rat) ([1]; before AII 0.1 mcg/kg, 120 min post dose): 240 mmHg and 225 mmHg
Control Before AII (individual rat) ([1]; before AII 0.1 mcg/kg, 180 min post dose): 235 mmHg
Control Before AII (individual rat) ([1]; before AII 0.1 mcg/kg, 240 min post dose): 250 mmHg and 225 mmHg
Control Before AII (individual rat) ([1]; before AII 0.1 mcg/kg, 300 min post dose): 240 mmHg and 245 mmHg

Specific binding for [^125 I](Sar^1, Ile^8)AngII (Angiotensin II Receptor; non-specific binding with 1.0 μM unlabeled (Sar^1, Ile^8)AngII): greater than 90%
Compound: [^125 I](Sar^1, Ile^8)AngII [reference compound]
